The values below come from patent US6911443B2 (Bayer Aktiengesellschaft, priority 2000, dated 2005).

Where only a bound is given, the exact number is not on record here.

For the first assay, the target named is T1, human Syk (GST-Syk) (Homo sapiens, UniProt P43405).
T1 construct: A cDNA fragment encoding human Syk openreading frame was cloned; made in house; host or cells: Sf21 insect cells (baculovirus, transfer vector pAcG2T)
The experiment in a line: Syk tyrosine kinase inhibitory assay. It counts as biochemical. The note with it: Activity grade (IC50 class), in vitro; compounds as yielded by solid phase synthesis, purity about 40 to 90%. The essentials:
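GST-tagged human Syk from baculovirus/Sf21, 0.65 nM final, with 3 μM biotinylated 30-residue activation-loop peptide and 30 μM ATP in Tris pH 8.0/MgCl2 buffer, 0.25% DMSO; 1 h at room temperature. Phosphopeptide captured on streptavidin, detected by europium-labelled anti-phosphotyrosine 4G10 time-resolved fluorescence.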
As to `CCSc1nc(-c2ccc(OC(=O)N(C)C)c(OC)c2)cc2nccn12` [Example 3-12], the IC50 was 2 to 10 µM.

Still in this assay, the particulars now being: Table 11; read-out: Activity grade.
As to `COc1ccc(-c2cc3nccn3c(Nc3cccc(N)n3)n2)cc1OC` [Example 12-29], the IC50 was less than 0.5 µM. Turning to `COc1cc(-c2cc3nccn3c(Nc3ccccc3)n2)ccc1NCCCN1CCN(C)CC1` [Example 12-39], the IC50 was less than 0.5 µM.

For the molecule `COC(=O)c1ccc(Nc2nc(-c3ccc(OC)c(OC)c3)cc3nccn23)s1` [Example 12-5], the IC50 lay in the range of 0.5 to 2 µM. Same read-out and setting: to `COc1ccc(Nc2nc(-c3ccc(N(C)C)c(OC)c3)cc3nccn23)cc1` [Example 12-52] belongs less than 0.5 µM; to `COc1cc(-c2cc3nccn3c(Nc3ccccc3)n2)ccc1OCCN1CCOCC1` [Example 12-26], less than 0.5 µM. `COc1ccc(Nc2nc(-c3ccc(OC)c(OC)c3)cc3ncnn23)cc1` [Example 12-15]: the IC50 was less than 0.5 µM. Still for that read-out and setting: to `COCCN(C)c1ccc(-c2cc3nccn3c(Nc3ccc(C(F)(F)F)cc3)n2)cc1OC` [Example 12-43] belongs less than 0.5 µM; to `COc1ccc(-c2cc3nccn3c(Nc3cnccc3C(N)=O)n2)cc1OC` [Example 12-45], less than 0.5 µM. With `COc1ccc(-c2cc3nccn3c(Nc3ccccc3)n2)cc1O` [Example 12-10], the IC50 is less than 0.5 µM. Take `COc1cc(-c2cc3nccn3c(Nc3ccc4cn[nH]c4c3)n2)ccc1N1CCOCC1` [Example 12-59]: the IC50 was less than 0.5 µM. The same measure, in the same setting: to `COc1ccc(-c2cc3nccn3c(Nc3ccccc3)n2)cc1OCc1ccccc1` [Example 12-27] belongs 2 to 10 µM. Take `COc1ccc(-c2cc3nccn3c(Nc3cccc(Cl)c3)n2)cc1OC` [Example 12-11]: the IC50 was less than 0.5 µM. Same read-out and setting: under `COc1ccc(Nc2nc(-c3ccc(NCCCN4CCOCC4)c(OC)c3)cc3nccn23)cc1` [Example 12-38] stands less than 0.5 µM; under `c1ccc(Nc2nc(-c3ccc4c(c3)OCCO4)cc3nccn23)cc1` [Example 12-21], 0.5 to 2 µM.

Staying with this assay, now noted: Table 13; read-out: Activity grade.
Regarding `COc1ccc(-c2cc3nccn3c(SC3CCCC3)n2)cc1OC` [Example 14-21], the IC50 was less than 0.5 µM. Turning to `COc1ccc(-c2cc3nccn3c(SCc3cccc(C(F)(F)F)c3)n2)cc1OC` [Example 14-13], the IC50 lay within 2 to 10 µM.

In the case of `Oc1ccc(Sc2nc(-c3ccccc3)cc3ncnn23)cc1` [Example 14-8], the IC50 was 2 to 10 µM. Still for that read-out and setting: to `COc1ccc(-c2cc3nccn3c(SCc3ccc(Cl)cc3)n2)cc1OC` [Example 14-15] belongs 0.5 to 2 µM. On the same count and under the same terms, to `COc1ccc(-c2cc3ncnn3c(Sc3ccc(NCC(=O)O)cc3)n2)cc1OC` [Example 14-11] belongs less than 0.5 µM. `COc1ccc(-c2cc3nccn3c(Oc3ccc(Br)cc3)n2)cc1OC` [Example 14-6]: the IC50 lay within 0.5 to 2 µM. Consider `COc1ccc(-c2cc3nccn3c(Oc3cccc(C)c3)n2)cc1OC` [Example 14-3], for which the IC50 fell in the range of 0.5 to 2 µM.

The assay is the same for the next values; noted with them: Table 16; read-out: Activity grade.
With `CCSc1nc(-c2ccc(NCCCN3CCN(C)CC3)c(OC)c2)cc2nccn12` [Example 17-4], the IC50 is less than 0.5 µM. Same read-out and setting: under `CCSc1nc(-c2ccc(N(C)CCCN3CCOCC3)c(OC)c2)cc2nccn12` [Example 17-17] stands less than 0.5 µM.

For the molecule `CCSc1nc(-c2ccc(OC)c(NC)c2)cc2nccn12` [Example 17-2], the IC50 fell in the range of 0.5 to 2 µM. Same read-out and setting: to `CCSc1nc(-c2ccc(OCCOC)c(OC)c2)cc2nccn12` [Example 17-10] belongs 0.5 to 2 µM.

Staying with this assay, now noted: Table 17; IC50 classes; read-out: Activity grade.
Regarding `COc1ccc(-c2cc3nccn3c(Nc3ccc(CC(N)C(=O)OC(C)C)cc3)n2)cc1OC` (centres unmarked) [Example 29], the IC50 is less than 0.5 µM. As for `Cc1c(N)cccc1Oc1nc(-c2ccc(OC3CCCC3)c(O)c2)cc2ncnn12` [compound 15], the IC50 is 2 to 10 µM. For the molecule `COc1ccc(-c2cc3nccn3c(Sc3ccc4c(c3)CCC(C(=O)O)C4)n2)cc1OC` (centres unmarked) [Example 19], the IC50 is less than 0.5 µM. For `COc1ccc(-c2cc3nccn3c(Nc3ccc(N)cc3C(N)=O)n2)cc1OC` [Example 33], the IC50 is less than 0.5 µM.

Consider `COc1ccc(-c2cc3nccn3c(Nc3ccccc3)n2)cc1NC(=O)CCC(=O)O` [Example 2], for which the IC50 was less than 0.5 µM. Still for that read-out and setting: to `COc1ccc(-c2cc3nccn3c(NC(=O)c3ccccc3)n2)cc1OC` [Example 16] belongs 0.5 to 2 µM; to `COc1ccc(-c2cc3nccn3c(SCC(=O)O)n2)cc1OC` [Example 26], 2 to 10 µM.

Staying with this assay, now noted: in vitro; compounds as yielded by solid phase synthesis, purity about 40 to 90%.
For `COc1ccc(-c2cc3nccn3c(N3CCC(C(=O)c4ccc(F)cc4)CC3)n2)cc1OC` [Example 9-61], the “Activity grade (IC50 class)” value is “C-D”. Still for that read-out and setting: under `CCOC(=O)CN1CCN(c2nc(-c3ccc(OC)c(OC)c3)cc3nccn23)CC1` [Example 9-73] stands “C-D”. For the molecule `COc1ccc(-c2cc3ncnn3c(Nc3ccc4ncccc4c3)n2)cc1OC` [Example 9-18], the “Activity grade (IC50 class)” value is listed as “C-D”. On the same count and under the same terms, to `COc1ccc(-c2cc3nccn3c(N(C)c3ccc(C(=O)O)cc3)n2)cc1OC` [Example 11-42] belongs “C-D”.

The same assay, now with this note: in vitro; compounds as yielded by solid phase synthesis, purity about 40 to 90%; read-out: Activity grade (IC50 class).
On to `CCSc1nc(-c2ccc(OC)c(OCCCN3CCSCC3)c2)cc2nccn12` [Example 5-10], for which the IC50 was in the range of 0.5 to 2 µM.

In the case of `COc1ccc(-c2cc3nccn3c(N3CCC(=O)CC3)n2)cc1OC` [Example 9-58], the IC50 lay within 0.5 to 2 µM. Still for that read-out and setting: to `COc1ccc(-c2cc3nccn3c(N3CCC(C#N)(c4ccccc4)CC3)n2)cc1OC` [Example 9-68] belongs 2 to 10 µM; to `COc1ccc(-c2cc3nccn3c(N3CCC(N4CCCCC4)CC3)n2)cc1OC` [Example 9-63], 2 to 10 µM; to `CCSc1nc(-c2ccc(OCCCN3CCOCC3)c(OC)c2)cc2nccn12` [Example 5-1], less than 0.5 µM. Same read-out and setting: to `COC(=O)CCCc1ccc(Nc2nc(-c3ccc(OC)c(OC)c3)cc3nccn23)cc1` [Example 9-25] belongs 0.5 to 2 µM; to `COc1ccc(-c2cc3nccn3c(Nc3cccc(O)c3)n2)cc1OC` [Example 11-30], less than 0.5 µM. For the molecule `COc1ccc(-c2cc3nccn3c(Nc3ccc(CC(=O)O)cc3)n2)cc1OC` [Example 11-22], the IC50 is less than 0.5 µM. Same read-out and setting: to `COc1ccc(-c2cc3nccn3c(Sc3ccc4c(c3)CNCC4)n2)cc1OC` [Example 13-14] belongs less than 0.5 µM; to `COc1ccc(-c2cc3nccn3c(Nc3ccc(Br)cc3C(=O)O)n2)cc1OC` [Example 11-85], less than 0.5 µM; to `COc1ccc(-c2cc3nccn3c(N3CCN(c4ccc([N+](=O)[O-])cc4)CC3)n2)cc1OC` [Example 9-35], 2 to 10 µM. As for `CCSc1nc(-c2ccc(OC)cc2)cc2nccn12` [Example 1-5], the IC50 lay within 0.5 to 2 µM. On to `COc1ccc(-c2cc3nccn3c(Nc3ccc(N(C)C)cc3)n2)cc1OC` [Example 11-34], for which the IC50 is less than 0.5 µM. Same read-out and setting: to `CCSc1nc(-c2ccc(OCc3ccc(OC)cc3)c(OC)c2)cc2nccn12` [Example 3-3] belongs 0.5 to 2 µM; to `CCSc1nc(-c2ccc(OC)c(OCCCN3CCN(C)CC3)c2)cc2nccn12` [Example 5-4], 0.5 to 2 µM.

For `CCSc1nc(-c2ccc(OCCCN3CCCCC3)c(OC)c2)cc2nccn12` [Example 5-7], the IC50 is less than 0.5 µM. Consider `CCSc1nc(-c2ccc(OC)c(OS(C)(=O)=O)c2)cc2nccn12` [Example 4-9], for which the IC50 is 0.5 to 2 µM. The same measure, in the same setting: to `COc1ccc(Nc2nc(-c3ccc(OC)c(OC)c3)cc3nccn23)cc1` [Example 11-17] belongs less than 0.5 µM.

`CCSc1nc(-c2ccsc2)cc2nccn12` [Example 8-5]: the IC50 was 0.5 to 2 µM. The same measure, in the same setting: to `COc1ccc(-c2cc3nccn3c(Nc3ccc(N)cc3)n2)cc1OC` [Example 11-62] belongs less than 0.5 µM; to `CCOc1ccc(-c2cc3nccn3c(SCC)n2)cc1OC` [Example 3-1], less than 0.5 µM. Same read-out and setting: under `COc1ccc(-c2cc3nccn3c(NC(=O)c3ccccc3)n2)cc1OC` [Example 16] stands less than 0.5 µM; under `COc1ccc(-c2cc3nccn3c(Nc3ccc(OCCN4CCOCC4)cc3)n2)cc1OC` [Example 11-91], less than 0.5 µM. Same read-out and setting: to `COc1cccc(N2CCN(c3nc(-c4ccc(OC)c(OC)c4)cc4nccn34)CC2)c1` [Example 9-43] belongs 2 to 10 µM. On to `C=CCSc1nc(-c2ccc(OC)c(OC)c2)cc2nccn12` [Example 9-8], for which the IC50 is less than 0.5 µM. Take `COc1ccc(-c2cc3nccn3c(Nc3ccc(C(N)=O)c(N)c3)n2)cc1OC` [Example 11-129]: the IC50 was less than 0.5 µM. As for `COc1ccc(-c2cc3nccn3c(Nc3cccc(C(=O)O)c3C)n2)cc1OC` [Example 11-51], the IC50 lay in the range of 0.5 to 2 µM. On to `COc1ccc(-c2cc3nccn3c(Sc3ccccc3Br)n2)cc1OC` [Example 13-6], for which the IC50 was less than 0.5 µM. Still for that read-out and setting: to `COc1ccc(-c2cc3nccn3c(Sc3nc4ccccc4s3)n2)cc1OC` [Example 13-11] belongs less than 0.5 µM; to `CNS(=O)(=O)c1ccccc1Nc1nc(-c2ccc(OC)c(OC)c2)cc2nccn12` [Example 11-122], less than 0.5 µM; to `CCSc1nc(-c2ccc(SC)cc2)cc2nccn12` [Example 1-12], 0.5 to 2 µM. `CCNC(=O)Oc1cc(-c2cc3nccn3c(SCC)n2)ccc1OC` [Example 4-8]: the IC50 was less than 0.5 µM. The same measure, in the same setting: to `COc1ccc(-c2cc3nccn3c(Sc3ccc(CCC(=O)O)cc3)n2)cc1O` [Example 13-24] belongs less than 0.5 µM; to `CCSc1nc(-c2ccc(OC)c(OCc3ccccc3)c2)cc2nccn12` [Example 4-1], 0.5 to 2 µM; to `COc1ccc(-c2cc3nccn3c(NCCc3ccccn3)n2)cc1OC` [Example 9-84], 0.5 to 2 µM. For `COc1cc(-c2cc3nccn3c(Sc3ccc(CCC(=O)O)cc3)n2)ccc1OCc1ccccc1` [Example 13-26], the IC50 is less than 0.5 µM. Turning to `CCSc1nc(-c2ccc(OCCCN3CCC(C(N)=O)CC3)c(OC)c2)cc2nccn12` [Example 5-13], the IC50 was less than 0.5 µM.
